Test results published in patent US20240376089A1, “3-HYDROXY-5-(ISOXAZOL-5-YL) PYRIDINE FORMYLGLYCINE COMPOUNDS, PREPARATION METHOD, PHARMACEUTICAL COMPOSITION AND USE” (CHINA PHARMACEUTICAL UNIVERSITY, priority 2022, published 2024).
Read-outs that look alike come from different tables or passages of the source.

How the values were obtained:
[1] = system: HepG2 cell; assay: Cellular lipid-lowering level detection (oleic acid-induced cellular hyperlipidemia model, triglyceride content); assay type: cell-based, human; details: HepG2 cells, drug treatment 24 h
Method: The lipid-lowering ability at the cellular level was confirmed by detecting triglyceride levels of hyperlipidemia cells to determine whether the compounds have the ability to improve hyperlipidemia at the cellular level (J. Med. Chem. 2021, 64(5), 2815-2828). This experiment adopted a human liver cancer cell, HepG2 cell. After a cellular hyperlipidemia model was induced by oleic acid, the cells were incubated and treated with a drug for 24 h. Then, the cells were lysed by ultrasonication, and the content of triglyceride was detected according to the instructions of a triglyceride kit.

[2] = target: FIH (Homo sapiens (Human), UniProt Q9NWT6); assay: Inhibitory activities of compounds on FIH, fluorescence polarization (FP assay); assay type: binding
Method: The compounds were serially diluted in an assay buffer to 12 concentration gradients, and then 20 μL of diluted 300 nM FIH protein was added to each well. […] The plate was incubated at room temperature for 1 h and scanned with a Synergy plate reader. The excitation wavelength was set to 485 nm, and the emission wavelength was set to 535 nm. […] The obtained data were imported into Graphpad prism 8.0 for analysis and fit to obtain IC50 values.

[3] = Table 2, comparison compounds, read-out: FIH (IC50 nM), compound where position 5 of pyridine is linked to other structures
[4] = FP competition with FITC-HIF-1α 788-822, Table 1, read-out: FIH IC50

Chain of FIH (Q9NWT6 whole entry): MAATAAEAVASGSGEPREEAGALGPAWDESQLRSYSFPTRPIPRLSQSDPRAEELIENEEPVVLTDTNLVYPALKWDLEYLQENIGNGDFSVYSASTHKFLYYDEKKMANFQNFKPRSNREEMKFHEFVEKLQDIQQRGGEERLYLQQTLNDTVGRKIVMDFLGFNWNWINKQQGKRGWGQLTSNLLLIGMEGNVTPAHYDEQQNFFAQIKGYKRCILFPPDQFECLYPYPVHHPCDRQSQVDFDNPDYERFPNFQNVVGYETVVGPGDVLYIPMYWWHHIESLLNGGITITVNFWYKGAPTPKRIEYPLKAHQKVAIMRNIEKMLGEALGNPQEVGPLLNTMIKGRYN

| IC50 [2, 3] | IC50 [2, 4] | SMILES | Whether or not it can improve cellular hyperlipidemia [1] |
| --- | --- | --- | --- |
| – | – | Cc1cc(C)cc(-c2cc(-c3cnc(C(=O)NCC(=O)O)c(O)c3)on2)c1 [Compound I-15, 3-Hydroxy-5-(3-m-dimethylphenylisoxazol-5-yl)picolinoyl glycine] | Yes |
| – | – | O=C(O)CNC(=O)c1ncc(-c2cccc(Cl)c2)cc1O [AKB-6548, reference compound] | No |
| – | – | O=C(O)CNC(=O)c1ncc(-c2cc(-c3cc(Cl)cc(Cl)c3)no2)cc1O [Compound I-19, 3-Hydroxy-5-(3-m-dichlorophenylisoxazol-5-yl)picolinoyl glycine] | Yes |
| 22250 ± 56.3 nM | – | O=C(O)CNC(=O)c1ncc(-c2cc(-c3ccccc3)n[nH]2)cc1O [reference compound] | – |
| – | 799 ± 8.6 nM | O=C(O)CNC(=O)c1ncc(-c2cc(-c3ccccc3F)no2)cc1O [Compound I-24, 3-Hydroxy-5-(3-o-fluorophenylisoxazol-5-yl)picolinoyl glycine] | Yes |
| – | 782 ± 9.6 nM | CC(C)(C)c1cccc(-c2cc(-c3cnc(C(=O)NCC(=O)O)c(O)c3)on2)c1 [Compound I-27, 3-Hydroxy-5-(3-m-tert-butylphenylisoxazol 5-yl)picolinoyl glycine] | Yes |
| – | – | COc1cccc(-c2cc(-c3cnc(C(=O)NCC(=O)O)c(O)c3)on2)c1 [Compound I-4, 3-Hydroxy-5-(3-m-methoxyphenylisoxazol-5-yl)picolinoyl glycine] | Yes |
| – | – | O=C(O)CNC(=O)c1ncc(-c2cc(-c3ccc4ccccc4c3)no2)cc1O [Compound I-12, 3-Hydroxy-5-(3-(naphthyl-2-yl)isoxazol-5-yl)picolinoyl glycine] | Yes |
| – | – | O=C(O)CNC(=O)c1ncc(-c2cc(-c3ccc(C(F)(F)F)cc3)no2)cc1O [Compound I-23, 3-Hydroxy-5-(3-p-trifluoromethylphenylisoxazol-5-yl)picolinoyl glycine] | Yes |
| – | 787 ± 9.5 nM | O=C(O)CNC(=O)c1ncc(-c2onc(-c3ccccc3)c2-c2ccccc2)cc1O [Compound I-33, 3-Hydroxy-5-(3,4-diphenylisoxazol-5-yl)picolinoyl glycine] | Yes |
| – | – | N#Cc1cccc(-c2cc(-c3cnc(C(=O)NCC(=O)O)c(O)c3)on2)c1 [Compound I-9, 3-Hydroxy-5-(3-m-cyanophenylisoxazol-5-yl)picolinoyl glycine] | Yes |
| – | – | Cc1cccc(-c2cc(-c3cnc(C(=O)NCC(=O)O)c(O)c3)on2)c1 [Compound I-2, 3-Hydroxy-5-(3-m-tolylisoxazol-5-yl)picolinoyl glycine] | Yes |
| – | 998 ± 10.9 nM | O=C(O)CNC(=O)c1ncc(-c2onc(-c3ccccc3)c2C2CCCCC2)cc1O [Compound I-32, 3-Hydroxy-5-(4-cyclohexyl-3-phenylisoxazol-5-yl) picolinoyl glycine] | Yes |
| 9024 ± 36.1 nM | – | O=C(O)CNC(=O)c1ncc(-c2cc(-c3ccccc3)co2)cc1O [reference compound] | – |
| – | 1210 ± 22.9 nM | CC(C)(C)c1c(-c2ccccc2)noc1-c1cnc(C(=O)NCC(=O)O)c(O)c1 [Compound I-30, 3-Hydroxy-5-(4-tert-butyl-3-phenylisoxazol-5-yl)picolinoyl glycine] | Yes |
| – | – | O=C(O)CNC(=O)c1ncc(-c2cc(-c3cccc(Br)c3)no2)cc1O [Compound I-6, 3-Hydroxy-5-(3-m-bromophenylisoxazol-5-yl)picolinoyl glycine] | Yes |
| – | – | O=C(O)CNC(=O)c1ncc(-c2cc(-c3ccccc3C(F)(F)F)no2)cc1O [Compound I-22, 3-Hydroxy-5-(3-o-trifluoromethylphenylisoxazol-5-yl)picolinoyl glycine] | Yes |
| – | – | O=C(O)CNC(=O)c1ncc(-c2cc(-c3cccc4ccccc34)no2)cc1O [Compound I-11, 3-Hydroxy-5-(3-(naphthyl-1-yl)isoxazol-5-yl)picolinoyl glycine] | Yes |
| – | – | O=C(O)CNC(=O)c1ncc(-c2cc(-c3cccc(Cl)c3)no2)cc1O [Compound I-5, 3-Hydroxy-5-(3-m-chlorophenylisoxazol-5-yl)picolinoyl glycine] | Yes |

| IC50 [2, 3] | IC50 [2, 4] | SMILES | Whether or not it can improve cellular hyperlipidemia [1] |
| --- | --- | --- | --- |
| – | – | O=C(O)CNC(=O)c1ncc(-c2cc(-c3cccc(C(F)(F)F)c3)no2)cc1O [Compound I-10, 3-Hydroxy-5-(3-m-trifluoromethylphenylisoxazol-5-yl)picolinoyl glycine] | Yes |
| – | 1920 ± 14.5 nM | O=C(O)CNC(=O)c1ncc(-c2onc(-c3ccccc3)c2C2CC2)cc1O [Compound I-31, 3-Hydroxy-5-(4-cyclopropyl-3-phenylisoxazol-5-yl)picolinoyl glycine] | Yes |
| – | – | O=C(O)CNC(=O)c1ncc(-c2cc(-c3cccc(F)c3)no2)cc1O [Compound I-16, 3-Hydroxy-5-(3-m-fluorophenylisoxazol-5-yl)picolinoyl glycine] | Yes |
| – | – | O=C(O)CNC(=O)c1ncc(-c2cc(-c3ccc(Br)cc3)no2)cc1O [Compound I-21, 3-Hydroxy-5-(3-p-bromophenylisoxazol-5-yl)picolinoyl glycine] | Yes |
| – | – | Cc1ccc(-c2cc(-c3cnc(C(=O)NCC(=O)O)c(O)c3)on2)cc1 [Compound I-14, 3-Hydroxy-5-(3-p-tolylisoxazol-5-yl)picolinoyl glycine] | Yes |
| – | – | O=C(O)CNC(=O)c1ncc(-c2cc(-c3ccccc3Br)no2)cc1O [Compound I-20, 3-Hydroxy-5-(3-o-bromophenylisoxazol-5-yl)picolinoyl glycine] | Yes |
| 19590 ± 43.8 nM | – | O=C(O)CNC(=O)c1ncc(-c2cn(-c3ccccc3)nn2)cc1O [reference compound] | – |
| – | – | O=C(O)CNC(=O)c1ncc(-c2cc(C3CCCCC3)no2)cc1O [Compound I-7, 3-Hydroxy-5-(3-cyclohexylisoxazol-5-yl)picolinoyl glycine] | Yes |
| – | – | O=C(O)CNC(=O)c1ncc(-c2cc(-c3ccccc3Cl)no2)cc1O [Compound I-17, 3-Hydroxy-5-(3-o-chlorophenylisoxazol-5-yl)picolinoyl glycine] | Yes |
| – | – | O=C(O)CNC(=O)c1ncc(-c2cc(-c3ccc(-c4ccccc4)cc3)no2)cc1O [Compound I-3, 3-Hydroxy-5-(3-biphenylisoxazol-5-yl)picolinoyl glycine] | Yes |
| – | – | O=C(O)CNC(=O)c1ncc(-c2cc(-c3ccccc3)no2)cc1O [Compound I-1, 3-Hydroxy-5-(3-phenylisoxazol-5-yl)picolinoyl glycine] | Yes |
| – | – | O=C(O)CNC(=O)c1ncc(-c2cc(-c3ccc(Cl)cc3)no2)cc1O [Compound I-18, 3-Hydroxy-5-(3-p-chlorophenylisoxazol-5-yl)picolinoyl glycine] | Yes |
| – | – | O=C(O)CNC(=O)c1ncc(-c2cc(-c3cc(F)cc(F)c3)no2)cc1O [Compound I-26, 3-Hydroxy-5-(3-m-difluorophenylisoxazol-5-yl)picolinoyl glycine] | Yes |
| – | 540 ± 1.8 nM | O=C(O)CNC(=O)c1ncc(-c2cc(-c3ccc(F)cc3)no2)cc1O [Compound I-25, 3-Hydroxy-5-(3-p-fluorophenylisoxazol-5-yl)picolinoyl glycine] | Yes |
| – | – | O=C(O)CNC(=O)c1ncc(-c2cc(C3CC3)no2)cc1O [Compound I-8, 3-Hydroxy-5-(3-cyclopropylisoxazol-5-yl)picolinoyl glycine] | Yes |
| – | – | Cc1ccccc1-c1cc(-c2cnc(C(=O)NCC(=O)O)c(O)c2)on1 [Compound I-13, 3-Hydroxy-5-(3-o-tolylisoxazol-5-yl)picolinoyl glycine] | Yes |
| – | 991 ± 12.3 nM | Cc1nc(C(=O)NCC(=O)O)c(O)cc1-c1cc(-c2ccccc2)no1 [Compound I-28, 3-Hydroxy-5-(3-phenylisoxazol-5-yl)-6-methylpicolinoyl glycine] | Yes |
| – | 1010 ± 25.1 nM | Cc1c(-c2ccccc2)noc1-c1cnc(C(=O)NCC(=O)O)c(O)c1 [Compound I-29, 3-Hydroxy-5-(4-methyl-3-phenylisoxazol-5-yl)picolinoyl glycine] | Yes |
